Values joined by “and” are separate entries in the source; they are usually repeats but may differ in a detail not shown here. Equal values may be shown once.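 Where inhibition never reached the appropriate level, the endpoint shown equals the highest concentration tested. Otherwise, values were interpolated linearly from a five-concentration, 48-hour dose response in 96-well plates. At the GI50, growth is halved. TGI is the concentration that stops growth completely.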
What was measured:
Test in all cases: NCI-60 cell line screen, 48 h
U251 CNS = test system: U251 CNS
DU-145 prostate = test system: DU-145 prostate
SK-MEL-2 melanoma = test system: SK-MEL-2 melanoma
SNB-75 CNS = test system: SNB-75 CNS
SF-295 CNS = test system: SF-295 CNS
IGROV1 ovarian = test system: IGROV1 ovarian
HOP-62 NSCLC = test system: HOP-62 NSCLC
OVCAR-8 ovarian = test system: OVCAR-8 ovarian
SF-539 CNS = test system: SF-539 CNS
HS 578T breast = test system: HS 578T breast

SMILES | GI50 (U251 CNS) | TGI (U251 CNS) | GI50 (DU-145 prostate) | TGI (DU-145 prostate) | GI50 (SK-MEL-2 melanoma) | TGI (SK-MEL-2 melanoma) | GI50 (SNB-75 CNS) | TGI (SNB-75 CNS) | GI50 (SF-295 CNS) | TGI (SF-295 CNS) | GI50 (IGROV1 ovarian) | TGI (IGROV1 ovarian) | GI50 (HOP-62 NSCLC) | TGI (HOP-62 NSCLC) | GI50 (OVCAR-8 ovarian) | TGI (OVCAR-8 ovarian) | GI50 (SF-539 CNS) | TGI (SF-539 CNS) | GI50 (HS 578T breast) | TGI (HS 578T breast)
O=C(O)c1cccc(COc2ccc([N+](=O)[O-])cc2Cl)c1 | > 100000 nM | > 100000 nM | > 100000 nM | > 100000 nM | > 100000 nM | > 100000 nM | > 100000 nM | > 100000 nM | > 100000 nM | > 100000 nM | 74600 nM | > 100000 nM | > 100000 nM | > 100000 nM | 86400 nM | > 100000 nM |  |  |  | 
COc1ccc(-c2nn(-c3cccc(Cl)c3)cc2-c2cc(-c3ccccc3)[nH]c(=O)c2C#N)cc1 | 1480 nM | 6760 nM | 10300 nM | > 50000 nM | 2130 nM | 9350 nM | 1170 nM | 3610 nM |  |  | 1890 nM | 7710 nM | 1170 nM | 2870 nM | 1670 nM | > 50000 nM | 1010 nM | 2750 nM | 1410 nM | > 50000 nM
COC(=O)/C([Se]c1c(C)cc(C)cc1C)=C(/[Se]c1c(C)cc(C)cc1C)C(=O)OC |  | > 100000 nM |  |  |  | > 100000 nM |  | > 100000 nM |  | > 100000 nM |  | > 100000 nM |  | > 100000 nM |  | > 100000 nM |  | > 100000 nM |  | 
COc1cc2c(cc1OC)[C@H]1CN3CCC[C@H]3C=C1c1ccc(OC)c(O)c1-2 |  | 1250 nM |  | 162 nM |  | 0.975 nM |  |  |  | 0.39 nM |  | 3.23 nM and 13.7 nM |  |  |  | 1.5 nM and 12.3 nM |  | 5.8 nM and 35.8 nM |  | 6.77 nM
c1coc(-c2c3ccc(=[N+]4CCCCC4)cc-3oc3cc(N4CCCCC4)ccc23)c1 |  |  | 88 nM | 475 nM | 119 nM | 1090 nM | 90.3 nM | 588 nM | 93.7 nM | 417 nM |  |  | 90.5 nM | 435 nM | 44.9 nM | 1100 nM |  |  |  | 
C=Cc1ccc(C)[n+](C[Si](C)(C)O[Si](C)(C)C[n+]2cc(C=C)ccc2C)c1 |  | > 100000 nM |  |  |  | > 100000 nM |  | > 100000 nM |  | > 100000 nM |  | > 100000 nM |  | > 100000 nM |  | > 100000 nM |  | > 100000 nM |  | 
CC1(C)CN=C(NN=C(/C=C/c2ccc(C(F)(F)F)cc2)/C=C/c2ccc(C(F)(F)F)cc2)NC1 | 1200 nM | 2470 nM | 1040 nM | 2220 nM |  |  | 1560 nM | 2950 nM | 1720 nM | 3280 nM | 1440 nM | 2880 nM | 1930 nM | 3560 nM | 1670 nM | 3200 nM | 1850 nM | 3450 nM | 1560 nM | 3640 nM
COc1ccc(-c2ccc3c(N4CCOC[C@@H]4C)nc(N4CCOC[C@@H]4C)nc3n2)cc1CO | 7.62 nM and 34.1 nM | > 54100 nM | 5.84 nM and 41.6 nM | > 100000 nM |  |  | 3.9 nM and < 10 nM | 23.7 nM and 35.9 nM | 4.12 nM and < 11 nM | 46.2 nM and 180 nM | 6.54 nM and < 10 nM | 74.4 nM and 60.7 nM | 5.14 nM and 28 nM | 1650 nM and 527 nM | 7.59 nM and 35.1 nM | 3390 nM | 4.31 nM and 26 nM | 83.1 nM and 268 nM | 1.8 nM and 13.1 nM | 14.5 nM and 67.9 nM

Reference: PubChem BioAssay (NCI)
